Assay results taken from US7235577B1 (priority 2000, dated 2007).

Columns and labels:
hKv1.5 = biological target: T1, hKv1.5 (Homo sapiens, UniProt P22460); test: Selectivity patch clamp, MEL cells expressing hKv1.5; type: cell-based
T1 construct: expressed in transfected cells; host or cells: MEL
Description: (§1) L929 cells stably expressing mKv1.1, rKv1.2, mKv1.3, and mKv3.1 and MEL cells stably expressing hKv1.5 have been previously described (Grissmer 1994, Mol. Pharmacol. 45: 1227). hKv1.4 and rKv4.2 were stably expressed in LTK (HK1–7). Channel expression was induced 8–12 h before the electrophysiological experiments by 4 μM dexamethasone (Sigma). HEK-293 cells stably expressing the skeletal muscle sodium channel hSkM1 (SCN4A) were generated in the laboratory of Dr. F. Lehmann-Horn. HEK-293 cells stably expressing hSloα were obtained from Dr. Andrew Tinker (Center for Clinical Pharmacology, University College London). L929, MEL, LTK and HEK cells were maintained in DMEM containing 10% heat-inactivated fetal calf serum (Summit Biotechnology, Fort Collins, Colo.) and 250 μg/ml G418 (Life Technologies, Inc.). Rat basophilic leukemia (RBL) cells were maintained in Eagle's minimum essential medium with 2 mM L-glutamine and 10% fetal calf serum. CHO cell were maintained in F12K media (ATCC). Human leukemic Jurkat E6–1 cells were cultured in RPMI 1640 supplemented with 10% fetal calf serum and 1 mM L-glutamine. T84 cells were maintained in a 1:1 mixture of Ham's F12 medium and DMEM with 2.5 mM L-glutamine and 10% fetal calf serum.
(§2) Recordings from the Jurkat SKCa channel were made in K^+ aspartate Ringer (Na^+ was replaced by K^+) with the same internal pipette solution. […]

mKv3.1 = biological target: T2, mKv3.1 (Mus musculus, UniProt P15388); test: Selectivity patch clamp, L929 cells expressing mKv3.1; type: cell-based
T2 construct: expressed in transfected cells; host or cells: L929
T2 sequence (P15388 whole entry): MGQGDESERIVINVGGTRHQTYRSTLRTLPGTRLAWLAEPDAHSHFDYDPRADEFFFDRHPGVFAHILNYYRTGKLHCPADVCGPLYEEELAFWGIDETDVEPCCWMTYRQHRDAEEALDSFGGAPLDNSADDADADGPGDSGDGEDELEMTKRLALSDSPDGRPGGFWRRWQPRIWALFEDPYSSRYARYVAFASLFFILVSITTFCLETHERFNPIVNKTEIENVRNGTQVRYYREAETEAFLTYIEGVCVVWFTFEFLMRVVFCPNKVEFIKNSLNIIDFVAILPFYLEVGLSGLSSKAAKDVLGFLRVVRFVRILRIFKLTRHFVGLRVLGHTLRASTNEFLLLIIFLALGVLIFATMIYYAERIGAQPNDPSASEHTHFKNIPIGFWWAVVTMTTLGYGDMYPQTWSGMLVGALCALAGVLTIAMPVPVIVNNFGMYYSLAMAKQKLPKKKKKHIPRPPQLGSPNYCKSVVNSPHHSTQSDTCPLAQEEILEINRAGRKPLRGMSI
Description: as §1, §2

Jurkat-SK = biological target: T3, Jurkat-SK (Homo sapiens, UniProt Q9H2S1); test: Selectivity patch clamp, Jurkat SKCa channel; type: cell-based
T3 construct: endogenous in cells; host or cells: Jurkat E6-1
T3 sequence (Q9H2S1 whole entry): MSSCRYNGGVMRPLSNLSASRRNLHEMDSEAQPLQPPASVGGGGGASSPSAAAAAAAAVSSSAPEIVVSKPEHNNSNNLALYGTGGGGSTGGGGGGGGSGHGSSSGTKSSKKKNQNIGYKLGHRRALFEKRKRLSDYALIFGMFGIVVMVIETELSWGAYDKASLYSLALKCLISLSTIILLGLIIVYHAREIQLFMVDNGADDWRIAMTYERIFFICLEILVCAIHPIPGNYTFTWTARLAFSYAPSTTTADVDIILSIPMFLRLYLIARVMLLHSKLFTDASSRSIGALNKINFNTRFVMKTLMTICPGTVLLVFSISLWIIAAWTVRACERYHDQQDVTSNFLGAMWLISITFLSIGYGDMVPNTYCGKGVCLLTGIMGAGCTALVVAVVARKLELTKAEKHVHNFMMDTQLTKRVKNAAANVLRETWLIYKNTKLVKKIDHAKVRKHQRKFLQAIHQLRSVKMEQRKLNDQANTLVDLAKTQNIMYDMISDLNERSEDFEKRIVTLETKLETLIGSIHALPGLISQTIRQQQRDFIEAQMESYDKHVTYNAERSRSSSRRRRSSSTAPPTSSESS
Description: as §1, §2

COS-7 chloride channel = test: Selectivity patch clamp, native chloride channels in COS-7 cells; type: cell-based, African green monkey; conditions: native chloride channel of COS-7 cells
Description: Electrophysiological experiments were carried out in the whole-cell configuration of the patch-clamp technique using an EPC-9 amplifier (HEKA Elektronik, Lambrecht Germany) interfaced to a computer running acquisition and analysis software (Pulse and Pulsfit; HEKA Elektronik). Pipettes were pulled from soft glass capillaries, coated with Sylgard (Dow-Corning, Midland, Mich.), and fire polished to resistances of 2.0–4.5 MΩ measured in the bath. COS-7 cells were trypsinized and plated on glass coverslips 3 h before measurement. […] To prevent activation of the native chloride channels in COS-7 cells an aspartate Ringer solution was used as an external solution (160 mM Na^+ aspartate, 4.5 mM KCl, 2 mM CaCl2, 1 mM MgCl2, 5 mM HEPES, adjusted to pH 7.4 with NaOH, with an osmolarity of 290–310 mosM). 200 ms voltage ramps from −120 mV to 40 mV every 10 s were used. The holding potential in all experiments was −80 mV. Series resistance compensation was not employed. The reduction of slope conductance at −80 mV was used to determine the Kd-value by fitting the values to the Hill equation with a Hill coefficient of unity.
as §2

CYP3A4 = CYP3A4 (Homo sapiens, UniProt P08684); test: in vitro; conditions: human
CYP3A4, sequence (P08684 whole entry): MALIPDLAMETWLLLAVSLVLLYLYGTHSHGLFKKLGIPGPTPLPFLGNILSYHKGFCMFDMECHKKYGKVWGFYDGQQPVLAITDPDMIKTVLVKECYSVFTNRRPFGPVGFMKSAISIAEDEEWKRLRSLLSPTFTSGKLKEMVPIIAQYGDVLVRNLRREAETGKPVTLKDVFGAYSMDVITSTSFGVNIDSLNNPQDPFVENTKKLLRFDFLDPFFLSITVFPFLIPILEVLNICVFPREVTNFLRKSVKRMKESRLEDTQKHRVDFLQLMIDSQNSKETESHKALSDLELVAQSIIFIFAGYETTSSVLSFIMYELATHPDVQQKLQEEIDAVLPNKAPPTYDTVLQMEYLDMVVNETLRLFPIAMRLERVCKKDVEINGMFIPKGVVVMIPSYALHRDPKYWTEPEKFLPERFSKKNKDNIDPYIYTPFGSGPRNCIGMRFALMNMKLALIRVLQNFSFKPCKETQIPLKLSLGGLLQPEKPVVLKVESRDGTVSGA
Description: (§3) The test substances shown in Table 8 were evaluated for their inhibitory effect on the catalytic activity of human cytochrome P450 enzyme. Cytochrome P450 3A4 (CYP3A4) is involved in many drug-drug interactions and in many other pathways in the body including the catabolism of steroids and xenobiotics. Inhibition of this enzyme was measured in 96 well plates with 7-benzyloxy-4-trifluoro-methylcoumarin (BFC) as the substrate and cDNA-derived enzymes in microsomes prepared from baculovirus-infected insect cells.
(§4) The inhibition study consisted of the determination of inhibition by the test substance on CYP3A4 catalytic activity. […] The compounds were prepared as 10 mM stock solutions in acetonitrile. Metabolism of the model substrate was assayed by the production of 7-hydroxy-4-trifluoromethylcoumarin metabolite. The metabolite was detected by fluorescence.
(§5) Table 10 below provides a list of the name of enzymes examined, the catalog number of the microsomes used as a source of the enzyme, the concentration of the model substrate used, the amount of enzyme used, the final buffer concentration, and the positive control compound.
(§6) Assays were conducted in 96 well microtiter plates. The BFC substrate was initially prepared in acetonitrile. […] Six wells were used for one test. […] For the positive controls, 12 wells in a row were used for one test. The positive control inhibitor/enzyme combination was examined in duplicate rows. Wells 1 to 8 contained serial 1:3 dilutions of the inhibitors. The highest inhibitor concentration were as described in the table above. Wells 9 and 10 contained no inhibitor and wells 11 and 12 were blanks for background fluorescence (stop solution added before the enzyme).
(§7) After buffer, cofactors and inhibitor addition, the plates were pre-warmed to 37° C. Incubations were initiated by the addition of pre-warmed enzyme and substrate. The final cofactor concentrations were 1.3 mM NADP, 3.3 mM glucose-6-phosphate and 0.4 U/ml glucose-6-phosphate dehydrogenase. The final incubation volume was 0.2 ml. Incubations were carried out for 30 minutes [CYP3A4 (BFC)] and stopped by the addition of 0.075 ml of 80% acetonitrile-20% 0.5M Tris. Fluorescence per well was measured using a BMG FLUOstar fluorescence plate reader. The BFC metabolite 7-hydroxy-4-trifluoromethyl-coumarin was measured using an excitation wavelength of 410 nm and emission wavelength of 538 nm.

[1] = biological target: human cytochrome P450 3A4 (CYP3A4) (Homo sapiens, UniProt P08684); test: in vitro
human cytochrome P450 3A4 (CYP3A4), sequence (P08684 whole entry): as above
Description: as §3, §4, §5, §6, §7

C2F3 cells = test: In vitro toxicity, propidium iodide uptake, 48 h; type: cell-based, human
Description: (§8) The in vitro toxicity was performed as follows.

Jurkat E6-1 cells = test: In vitro toxicity, propidium iodide uptake, 48 h; type: cell-based, human
Description: as §8

NGP cells = test: In vitro toxicity, propidium iodide uptake, 48 h; type: cell-based, human
Description: as §8

NLF cells = test: In vitro toxicity, propidium iodide uptake, 48 h; type: cell-based, human
Description: as §8

T1 sequence (P22460 whole entry): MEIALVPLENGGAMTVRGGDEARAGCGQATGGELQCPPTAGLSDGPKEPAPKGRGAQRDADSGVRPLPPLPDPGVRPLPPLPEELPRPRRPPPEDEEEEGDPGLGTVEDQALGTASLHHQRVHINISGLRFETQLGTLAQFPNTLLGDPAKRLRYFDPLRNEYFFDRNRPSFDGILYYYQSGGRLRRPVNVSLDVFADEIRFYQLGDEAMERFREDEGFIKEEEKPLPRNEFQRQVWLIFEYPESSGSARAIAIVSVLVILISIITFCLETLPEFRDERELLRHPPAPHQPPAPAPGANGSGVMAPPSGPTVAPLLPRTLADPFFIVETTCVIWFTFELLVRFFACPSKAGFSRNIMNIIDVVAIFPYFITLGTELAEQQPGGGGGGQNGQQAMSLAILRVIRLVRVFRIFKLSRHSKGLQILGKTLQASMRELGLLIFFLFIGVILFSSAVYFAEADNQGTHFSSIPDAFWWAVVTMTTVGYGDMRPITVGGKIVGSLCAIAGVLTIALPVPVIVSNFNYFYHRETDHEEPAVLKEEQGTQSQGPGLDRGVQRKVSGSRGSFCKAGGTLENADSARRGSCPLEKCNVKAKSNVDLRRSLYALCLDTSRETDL

SMILES: Clc1ccccc1C(c1ccccc1)(c1ccccc1)n1cccn1 [Compound T34, 1-[(2-Chlorophenyl)diphenylmethyl]-1H-pyrazole]
- Kd (hKv1.5): 7 ± 0.62 µM
- Kd (mKv3.1): 30 ± 5 µM
- Kd (Jurkat-SK): 23 ± 2 µM
- Block of COS-7 (Cl) (COS-7 chloride channel): no effect at 10 μM
- inhibition at 30 min, 10 μM (CYP3A4): -77.5%
- EC50 for inhibition of CYP3A4 ([1]; T34 tested up to 10 μM): No inhibitory
- Inhibition of CYP3A4 activity ([1]; up to 10 μM): does not inhibit the activity of CYP3A4
- percentage of dead cells (PI uptake) (C2F3 cells; 2 μM): 15.8%
- percentage of dead cells (PI uptake) (C2F3 cells; 5 μM): 12.8%
- percentage of dead cells (PI uptake) (Jurkat E6-1 cells; 2 μM): 2.5%
- percentage of dead cells (PI uptake) (Jurkat E6-1 cells; 5 μM): 3.2%
- percentage of dead cells (PI uptake) (NGP cells; 2 μM): 10.9%
- percentage of dead cells (PI uptake) (NGP cells; 5 μM): 5.9%
- percentage of dead cells (PI uptake) (NLF cells; 2 μM): 10.8%
- percentage of dead cells (PI uptake) (NLF cells; 5 μM): 10.8%
- logP (logP): 4
